Data: patent US7118885B2, “Nucleic acid encoding vitamin D receptor related polypeptide” (Pfizer Inc., priority 1997, dated 2006)

Experiments:
[1] = target: T1, VDRRg (Homo sapiens, UniProt O75469); experiment: Similar reporter assays as used in WO 96/22390; assay type: cell-based; conditions: data not shown
T1 construct: expressed in transfected cells
T1 sequence (O75469 1-434): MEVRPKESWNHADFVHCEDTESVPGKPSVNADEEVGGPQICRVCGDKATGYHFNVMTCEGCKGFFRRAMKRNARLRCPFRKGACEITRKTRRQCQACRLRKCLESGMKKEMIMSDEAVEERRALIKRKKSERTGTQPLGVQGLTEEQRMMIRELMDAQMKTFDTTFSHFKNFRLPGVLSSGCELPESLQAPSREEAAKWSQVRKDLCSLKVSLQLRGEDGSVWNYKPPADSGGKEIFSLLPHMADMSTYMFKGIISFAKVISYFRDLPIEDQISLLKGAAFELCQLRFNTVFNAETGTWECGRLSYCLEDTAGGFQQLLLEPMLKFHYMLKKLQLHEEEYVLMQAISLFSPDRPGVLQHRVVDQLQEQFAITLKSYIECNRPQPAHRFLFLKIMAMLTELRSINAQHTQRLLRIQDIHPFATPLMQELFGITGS

[2] = target: T2, VDRRγ (Homo sapiens, UniProt O75469); experiment: VDRRγ reporter gene assay in transiently transfected Caco-2 (TC7) cells
T2 sequence (O75469 1-434): T1 sequence (O75469 1-434)
Description: For identifying activators or ligands for VDRRγ, a library of substances structurally biased towards different classes of activators and ligands for nuclear receptors were tested. The activation of VDRRγ was analyzed in a reporter gene assay in transiently Caco-2 (TC7) cells (Carriere et al, 1994).

[3] = target: T3, GAL4-DBD/VDRRγ-LBD fusion protein (Homo sapiens, UniProt O75469); experiment: Transient co-transfection of CV-1 cells, GAL4-DBD/VDRRγ-LBD with GAL4-luciferase reporter; assay type: cell-based; conditions: vitamin D3 1 μM, 48 hours
T3 construct: fusion proteins of the GAL4-DBD fused to the LBD of either the VDR or the VDRR; expressed in transfected cells; host or cells: CV-1 cells
T3 sequence (O75469 146-433 limits assumed): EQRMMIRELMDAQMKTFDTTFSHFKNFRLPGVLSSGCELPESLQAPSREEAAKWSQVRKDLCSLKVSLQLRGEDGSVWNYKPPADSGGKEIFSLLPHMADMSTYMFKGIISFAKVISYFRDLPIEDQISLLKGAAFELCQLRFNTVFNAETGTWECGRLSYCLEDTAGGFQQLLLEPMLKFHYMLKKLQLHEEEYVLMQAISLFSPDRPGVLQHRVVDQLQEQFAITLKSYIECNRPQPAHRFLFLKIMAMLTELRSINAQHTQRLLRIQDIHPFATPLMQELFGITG
Description: (§1) Transient transfections were performed to analyze if vitamin D3 activate the VDRRγ polypeptide. To this end, transient co-tansfections of CV-1 cells were performed with expression plasmids encoding fusion proteins of the GAL4-DBD fused to the LBD of either the VDR or the VDRR together with a reporter-plasmid containing five GAL4 responsive elements upstream of the luciferase gene. After transfection, cells were treated with vehicle (DMSO) alone or with vitamin D3 for 48 hours followed by harvesting of the cells and measurement of the luciferase activity in cell extracts.

[4] = target: T4, GAL4-DBD/VDR-LBD fusion protein (Homo sapiens, UniProt P11473); experiment: Transient co-transfection of CV-1 cells, GAL4-DBD/VDR-LBD with GAL4-luciferase reporter; assay type: cell-based; conditions: vitamin D3 1 μM, 48 hours
T4 construct: fusion proteins of the GAL4-DBD fused to the LBD of either the VDR or the VDRR; expressed in transfected cells; host or cells: CV-1 cells
T4 sequence (P11473 127-423 limits assumed): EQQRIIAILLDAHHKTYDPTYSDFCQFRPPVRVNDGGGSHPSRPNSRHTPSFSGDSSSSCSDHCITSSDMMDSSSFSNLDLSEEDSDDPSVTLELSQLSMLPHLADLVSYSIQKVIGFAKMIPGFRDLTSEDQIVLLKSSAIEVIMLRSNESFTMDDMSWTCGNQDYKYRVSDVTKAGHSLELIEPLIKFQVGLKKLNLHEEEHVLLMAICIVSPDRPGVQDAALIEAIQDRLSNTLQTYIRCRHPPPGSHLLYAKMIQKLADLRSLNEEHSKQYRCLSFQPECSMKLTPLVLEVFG
Description: as §1

How did the “activation of VDRRg” value [1] turn out when `CCCCOC(=O)c1ccc(N)cc1` [butyl 4-NH2 Benzoate] was run?
The value was “did not activate”.

How did the “increase in VDRRγ mediated reporter gene activity” value [2] turn out when `CC#C[C@]1(O)CC[C@H]2[C@@H]3CCC4=CC(=O)CCC4=C3[C@@H](c3ccc(N(C)C)cc3)C[C@@]21C` [RU486] was run?
The value was “slight increase (two fold)”.

With `CC(=O)[C@H]1CC[C@H]2[C@@H]3CC[C@@H]4CC(=O)CC[C@]4(C)[C@H]3CC[C@]12C` [5β-pregnane-3,20-dione] as the compound, how does the “activation of VDRRγ (in words)” value ([2]; Caco-2 (TC7) cells, FIG. 10) read?
Its value is “efficient activation”.

For `C=C1CC[C@H](O)C/C1=C/C=C1\CCC[C@]2(C)[C@@H]([C@H](C)CCCC(C)C)CC[C@@H]12` [vitamin D3], which “transactivation of GAL4-DBD/VDRRγ-LBD (luciferase activity)” value [3] is on record?
Its value is “not”.

And the “transactivation of GAL4-DBD/VDR-LBD (luciferase activity)” value [4]?
The value was “transactivate”.

For `CC(=O)[C@H]1CC[C@H]2[C@@H]3CC[C@H]4CC(=O)CC[C@]4(C)[C@H]3CC[C@]12C` [5α-pregnane-3,20-dione], which “activation of VDRRγ (in words)” value ([2]; Caco-2 (TC7) cells, FIG. 10) is on record?
Its value is “did not activate”.

Which “activation of VDRRγ (in words)” value ([2]; Caco-2 cells, 10 μM, FIG. 11) does the source give for `CC(=O)[C@H]1[C@H](C#N)C[C@H]2[C@@H]3CC=C4C[C@@H](O)CC[C@]4(C)[C@H]3CC[C@@]21C` [PCN, pregnenolone 16α-carbonitrile] here?
The value was “not activated”.

What about the “activation of human VDRRγ polypeptides (summary statement)” value ([2]; VDRRγ-1 and VDRRγ-2, no concentration given) of the same compound?
Its value is “not activated”.
